What was measured:
Assay in all cases: biochemical
Parameters in all cases: KINOMEscan competition binding panel (Eurofins DiscoverX), single concentration, % inhibition
Conditions in all cases: read-out: 7 at 1 µM % inhibition
[1] = target: T1, ABL1(T315I)-nonphosphorylated (Homo sapiens, UniProt P00519, T315I)
T1 construct: nonphosphorylated
Outline: (§1)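 Values come from single-concentration (1 µM) profiling in the Eurofins DiscoverX KINOMEscan competition-binding platform, which covers over 400 kinases.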

ABL1-nonphosphorylated = target: T2, ABL1-nonphosphorylated (Homo sapiens, UniProt P00519)
T2 construct: nonphosphorylated
Outline: as §1

ACVR2B = ACVR2B (Homo sapiens, UniProt Q13705)
Outline: as §1

ALK(C1156Y) = ALK(C1156Y) (Homo sapiens, UniProt Q9UM73, C1156Y)
Outline: as §1

CAMK1 = CAMK1 (Homo sapiens, UniProt Q14012)
Outline: as §1

CDC2L2 = target: T3, CDC2L2 (Homo sapiens, UniProt Q9UQ88)
T3 construct: gene CDK11A
Outline: as §1

DMPK2 = target: T4, DMPK2 (Homo sapiens, UniProt Q6DT37)
T4 construct: gene CDC42BPG
Outline: as §1

FLT3(D835V) = FLT3(D835V) (Homo sapiens, UniProt P36888, D835V)
Outline: as §1

FLT3(R834Q) = FLT3(R834Q) (Homo sapiens, UniProt P36888, R834Q)
Outline: as §1

GRK3 = GRK3 (Homo sapiens, UniProt P35626)
Outline: as §1

INSR = INSR (Homo sapiens, UniProt P06213)
Outline: as §1

LATS1 = LATS1 (Homo sapiens, UniProt O95835)
LATS1, sequence (O95835 whole entry): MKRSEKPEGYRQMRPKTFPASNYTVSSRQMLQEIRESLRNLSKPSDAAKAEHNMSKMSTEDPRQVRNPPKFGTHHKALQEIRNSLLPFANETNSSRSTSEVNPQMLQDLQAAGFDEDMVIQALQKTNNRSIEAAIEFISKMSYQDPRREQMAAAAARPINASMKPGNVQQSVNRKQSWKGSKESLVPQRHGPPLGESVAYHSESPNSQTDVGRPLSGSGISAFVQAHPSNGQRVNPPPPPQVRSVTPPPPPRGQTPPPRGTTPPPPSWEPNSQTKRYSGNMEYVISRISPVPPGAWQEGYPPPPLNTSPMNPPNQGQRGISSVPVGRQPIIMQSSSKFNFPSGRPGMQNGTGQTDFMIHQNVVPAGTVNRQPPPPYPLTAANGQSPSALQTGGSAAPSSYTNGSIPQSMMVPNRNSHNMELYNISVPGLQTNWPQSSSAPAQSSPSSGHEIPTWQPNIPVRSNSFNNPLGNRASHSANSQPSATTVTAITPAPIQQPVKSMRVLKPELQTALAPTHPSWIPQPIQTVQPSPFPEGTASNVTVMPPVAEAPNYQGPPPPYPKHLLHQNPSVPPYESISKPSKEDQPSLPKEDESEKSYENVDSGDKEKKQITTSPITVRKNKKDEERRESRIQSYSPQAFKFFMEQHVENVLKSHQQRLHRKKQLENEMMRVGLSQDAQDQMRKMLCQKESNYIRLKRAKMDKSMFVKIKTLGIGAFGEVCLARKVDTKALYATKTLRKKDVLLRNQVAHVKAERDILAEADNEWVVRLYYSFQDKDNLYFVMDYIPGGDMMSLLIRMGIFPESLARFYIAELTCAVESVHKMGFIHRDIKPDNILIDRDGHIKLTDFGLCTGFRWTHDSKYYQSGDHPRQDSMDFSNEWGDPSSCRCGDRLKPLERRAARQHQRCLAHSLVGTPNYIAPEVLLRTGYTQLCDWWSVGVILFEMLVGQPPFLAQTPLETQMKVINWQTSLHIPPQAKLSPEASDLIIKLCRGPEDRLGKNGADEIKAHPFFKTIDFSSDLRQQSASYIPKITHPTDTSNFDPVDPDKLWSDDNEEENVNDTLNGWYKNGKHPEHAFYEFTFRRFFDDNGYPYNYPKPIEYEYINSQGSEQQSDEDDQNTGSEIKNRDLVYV
Outline: as §1

MEK6 = target: T5, MEK6 (Homo sapiens, UniProt P52564)
T5 construct: gene MAP2K6
Outline: as §1

MUSK = MUSK (Homo sapiens, UniProt O15146)
Outline: as §1

PAK2 = PAK2 (Homo sapiens, UniProt Q13177)
Outline: as §1

PIK3CA(M1043I) = PIK3CA(M1043I) (Homo sapiens, UniProt P42336, M1043I)
PIK3CA(M1043I), sequence (P42336 whole entry M1043I): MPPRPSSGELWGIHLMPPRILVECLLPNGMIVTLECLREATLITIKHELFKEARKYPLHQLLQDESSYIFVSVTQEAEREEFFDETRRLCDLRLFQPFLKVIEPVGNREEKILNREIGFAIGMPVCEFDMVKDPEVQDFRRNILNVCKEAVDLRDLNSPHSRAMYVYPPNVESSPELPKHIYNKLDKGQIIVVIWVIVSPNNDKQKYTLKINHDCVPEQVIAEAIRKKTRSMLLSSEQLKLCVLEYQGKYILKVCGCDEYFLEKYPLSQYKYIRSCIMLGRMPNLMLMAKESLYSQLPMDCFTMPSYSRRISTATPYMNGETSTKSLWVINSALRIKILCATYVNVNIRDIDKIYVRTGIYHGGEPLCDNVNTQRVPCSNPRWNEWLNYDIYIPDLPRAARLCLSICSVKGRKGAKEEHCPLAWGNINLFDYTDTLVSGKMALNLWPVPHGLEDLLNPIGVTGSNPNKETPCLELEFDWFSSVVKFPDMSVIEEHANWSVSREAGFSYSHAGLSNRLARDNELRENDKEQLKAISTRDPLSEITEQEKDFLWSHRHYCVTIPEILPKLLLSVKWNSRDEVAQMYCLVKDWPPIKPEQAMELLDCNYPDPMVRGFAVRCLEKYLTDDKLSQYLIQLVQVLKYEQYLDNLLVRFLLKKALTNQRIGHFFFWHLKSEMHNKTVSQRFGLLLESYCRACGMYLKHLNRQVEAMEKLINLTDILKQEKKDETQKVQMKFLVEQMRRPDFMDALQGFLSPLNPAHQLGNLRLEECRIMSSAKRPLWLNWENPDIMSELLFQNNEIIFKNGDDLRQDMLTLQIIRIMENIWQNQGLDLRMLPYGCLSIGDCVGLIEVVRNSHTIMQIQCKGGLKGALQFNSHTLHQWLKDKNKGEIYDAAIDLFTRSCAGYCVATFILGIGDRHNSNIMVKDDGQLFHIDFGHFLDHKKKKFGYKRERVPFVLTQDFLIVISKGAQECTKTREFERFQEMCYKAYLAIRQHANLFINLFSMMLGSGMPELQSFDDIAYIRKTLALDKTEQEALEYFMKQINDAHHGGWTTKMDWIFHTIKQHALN
Outline: as §1

PIK3CD = PIK3CD (Homo sapiens, UniProt O00329)
Outline: as §1

PIM1 = PIM1 (Homo sapiens, UniProt P11309)
PIM1, sequence (P11309 whole entry): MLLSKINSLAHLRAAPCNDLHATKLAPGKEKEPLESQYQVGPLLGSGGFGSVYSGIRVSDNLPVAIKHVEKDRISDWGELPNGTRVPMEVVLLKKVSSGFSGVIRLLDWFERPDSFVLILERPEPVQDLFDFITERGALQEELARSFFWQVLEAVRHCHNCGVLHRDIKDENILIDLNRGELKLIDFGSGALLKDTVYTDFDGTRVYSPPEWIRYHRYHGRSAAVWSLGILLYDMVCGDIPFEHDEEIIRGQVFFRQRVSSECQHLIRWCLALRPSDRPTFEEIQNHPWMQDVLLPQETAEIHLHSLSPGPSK
Outline: as §1

PYK2 = target: T6, PYK2 (Homo sapiens, UniProt Q14289)
T6 construct: gene PTK2B
T6 sequence (Q14289 whole entry): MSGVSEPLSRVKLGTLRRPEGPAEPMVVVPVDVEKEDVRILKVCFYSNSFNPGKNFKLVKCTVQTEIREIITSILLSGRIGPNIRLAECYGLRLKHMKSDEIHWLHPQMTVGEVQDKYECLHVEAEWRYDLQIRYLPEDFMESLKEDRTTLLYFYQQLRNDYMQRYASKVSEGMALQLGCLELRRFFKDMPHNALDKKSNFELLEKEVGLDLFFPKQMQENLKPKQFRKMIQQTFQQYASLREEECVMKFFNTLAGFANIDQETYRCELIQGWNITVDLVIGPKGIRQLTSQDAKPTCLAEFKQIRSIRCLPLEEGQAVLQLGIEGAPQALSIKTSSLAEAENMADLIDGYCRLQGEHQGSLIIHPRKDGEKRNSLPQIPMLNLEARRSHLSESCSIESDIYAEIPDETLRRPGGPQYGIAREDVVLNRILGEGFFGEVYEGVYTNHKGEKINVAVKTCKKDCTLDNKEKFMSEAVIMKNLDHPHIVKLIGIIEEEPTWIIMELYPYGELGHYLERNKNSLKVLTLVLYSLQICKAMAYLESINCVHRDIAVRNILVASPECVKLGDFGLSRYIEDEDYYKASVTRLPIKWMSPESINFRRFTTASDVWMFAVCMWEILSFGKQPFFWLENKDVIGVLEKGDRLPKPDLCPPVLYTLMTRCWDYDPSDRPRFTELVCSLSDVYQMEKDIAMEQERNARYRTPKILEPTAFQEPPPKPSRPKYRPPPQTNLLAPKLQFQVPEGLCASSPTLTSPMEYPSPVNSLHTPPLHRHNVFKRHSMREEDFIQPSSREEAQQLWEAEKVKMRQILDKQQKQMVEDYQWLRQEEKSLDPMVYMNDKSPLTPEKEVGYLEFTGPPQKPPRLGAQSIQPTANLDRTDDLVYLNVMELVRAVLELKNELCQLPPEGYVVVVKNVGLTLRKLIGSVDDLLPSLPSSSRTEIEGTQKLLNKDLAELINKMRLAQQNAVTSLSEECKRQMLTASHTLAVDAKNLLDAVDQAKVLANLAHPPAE
Outline: as §1

ROCK2 = ROCK2 (Homo sapiens, UniProt O75116)
Outline: as §1

STK33 = STK33 (Homo sapiens, UniProt Q9BYT3)
Outline: as §1

SYK = SYK (Homo sapiens, UniProt P43405)
Outline: as §1

TAK1 = target: T7, TAK1 (Homo sapiens, UniProt O43318)
T7 construct: gene MAP3K7
Outline: as §1

TNIK = TNIK (Homo sapiens, UniProt Q9UKE5)
TNIK, sequence (Q9UKE5 whole entry): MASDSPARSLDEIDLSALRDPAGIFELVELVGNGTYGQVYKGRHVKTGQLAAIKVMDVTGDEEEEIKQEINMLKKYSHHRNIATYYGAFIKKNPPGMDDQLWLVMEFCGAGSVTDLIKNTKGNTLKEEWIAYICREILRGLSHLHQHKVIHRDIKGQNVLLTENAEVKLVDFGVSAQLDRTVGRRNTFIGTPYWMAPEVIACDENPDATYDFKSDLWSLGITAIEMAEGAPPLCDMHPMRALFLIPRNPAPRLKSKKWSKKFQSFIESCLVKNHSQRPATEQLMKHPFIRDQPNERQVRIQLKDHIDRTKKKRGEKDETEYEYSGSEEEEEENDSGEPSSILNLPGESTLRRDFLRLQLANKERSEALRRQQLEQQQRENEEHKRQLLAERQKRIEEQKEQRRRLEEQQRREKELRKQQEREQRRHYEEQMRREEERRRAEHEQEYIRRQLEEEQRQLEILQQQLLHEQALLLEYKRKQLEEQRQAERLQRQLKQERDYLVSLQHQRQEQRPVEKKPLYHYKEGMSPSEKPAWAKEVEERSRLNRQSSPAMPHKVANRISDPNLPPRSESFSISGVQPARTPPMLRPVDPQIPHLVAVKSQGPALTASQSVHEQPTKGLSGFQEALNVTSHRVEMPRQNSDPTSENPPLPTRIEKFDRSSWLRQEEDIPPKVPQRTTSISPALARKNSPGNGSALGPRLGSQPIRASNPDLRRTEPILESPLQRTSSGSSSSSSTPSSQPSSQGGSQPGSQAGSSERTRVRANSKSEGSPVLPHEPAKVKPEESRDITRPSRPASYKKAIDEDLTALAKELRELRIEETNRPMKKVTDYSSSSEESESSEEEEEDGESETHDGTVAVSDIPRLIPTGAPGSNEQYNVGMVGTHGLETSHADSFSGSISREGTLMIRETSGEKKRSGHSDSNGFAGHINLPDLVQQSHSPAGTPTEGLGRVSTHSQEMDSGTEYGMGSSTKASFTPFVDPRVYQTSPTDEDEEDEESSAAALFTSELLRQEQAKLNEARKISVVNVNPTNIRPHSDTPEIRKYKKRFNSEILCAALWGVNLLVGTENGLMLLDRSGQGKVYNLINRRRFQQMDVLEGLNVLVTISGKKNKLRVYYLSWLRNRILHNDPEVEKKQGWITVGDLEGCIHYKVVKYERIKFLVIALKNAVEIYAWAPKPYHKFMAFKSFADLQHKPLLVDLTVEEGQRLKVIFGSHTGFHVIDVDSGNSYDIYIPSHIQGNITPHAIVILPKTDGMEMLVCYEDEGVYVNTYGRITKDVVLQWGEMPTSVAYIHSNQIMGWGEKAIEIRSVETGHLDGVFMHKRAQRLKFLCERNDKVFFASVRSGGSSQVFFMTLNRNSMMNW
Outline: as §1

`CNS(=O)(=O)c1ccc(N(C)C)c(Nc2ncnc3cc(OC)c(OC)cc23)c1` [compound 7, 3-((6,7-dimethoxyquinazolin-4-yl)amino)-4-(dimethylamino)-N-methylbenzenesulfonamide] was tested, and the inhibition at 1 µM [1] was 33%, the inhibition at 1 µM (ABL1-nonphosphorylated) was 21% and the inhibition at 1 µM (ACVR2B) was 6%. It also gave an inhibition at 1 µM (ALK(C1156Y)) of 0%, an inhibition at 1 µM (CAMK1) of 0% and an inhibition at 1 µM (CDC2L2) of 0%. The inhibition at 1 µM (DMPK2) was 0%, the inhibition at 1 µM (FLT3(D835V)) was 91.8% and the inhibition at 1 µM (FLT3(R834Q)) was 31%. It also gave an inhibition at 1 µM (GRK3) of 38%, an inhibition at 1 µM (INSR) of 17% and an inhibition at 1 µM (LATS1) of 0%. It also gave an inhibition at 1 µM (MEK6) of 0%, an inhibition at 1 µM (MUSK) of 0% and an inhibition at 1 µM (PAK2) of 0%. It also gave an inhibition at 1 µM (PIK3CA(M1043I)) of 29%, an inhibition at 1 µM (PIK3CD) of 61% and an inhibition at 1 µM (PIM1) of 0%. It also gave an inhibition at 1 µM (PYK2) of 0%, an inhibition at 1 µM (ROCK2) of 0% and an inhibition at 1 µM (STK33) of 6%. For the same compound, the inhibition at 1 µM (SYK) was 0%, the inhibition at 1 µM (TAK1) was 51% and the inhibition at 1 µM (TNIK) was 7%.

From PMC7180948, “New Insights into 4-Anilinoquinazolines as Inhibitors of Cardiac Troponin I–Interacting Kinase (TNNi3K)” (Molecules, 2020)
